Assay results published in patent publication US20230136562A1, “SPIROUREA DERIVATIVES” (Idorsia Pharmaceuticals Ltd, priority 2020, published 2023).
Read-outs that look alike come from different tables or passages of the source.

Tested on: primary neuronal cultures from embryonic rat brains
Assay: Rat oscillation assay (FLIPR, neuronal calcium oscillations)
Format: cell-based
Conditions: Rattus norvegicus
Procedure: A) Rat Oscillation Assay:
This assay is a functional phenotypic assay designed to mimic epileptic seizures using primary neuronal cultures from embryonic rat brains, which form a functional neuronal network that generate synchronized intracellular calcium concentration oscillations when cultured at high density in 384-well plate. The epileptic phenotype is induced by incubating the neurons in magnesium-free assay buffer, that results in increased probability of NMDA receptor activation, leading to an increased frequency and amplitude of intracellular calcium oscillations. Once neurons are incubated with the calcium indicator dye Fluo-8 AM (Tebu-bio), neuronal calcium oscillations can be monitored in real time using FLIPR® Tetra (fluorometric plate reader, Molecular Devices). With these recordings, the effect of anti-epileptic drugs can be quantified. The anti-epileptic effect of compounds, which activate directly or indirectly the Kv7 channels can be modulated by the Kv7 channel blocker XE-991. The assay was performed as described previously (Pacico N, Mingorance-Le Meur A. New In Vitro Phenotypic Assay for Epilepsy: Fluorescent Measurement of Synchronized Neuronal Calcium Oscillations. PLoS ONE 9(1) 2014) with modifications described hereafter.
Animal care followed standard procedures in accordance with swiss institutional guidelines. Dissociated neuronal cultures were obtained from cerebral cortices of embryonic Wistar rats at embryonic stage E18 (Charles River). The uterine horns were removed by caesarian surgery from deeply anesthetized rats (Isofurane) and sacrificed by decapitation. The embryos were decapitated by closing forceps. The brains were isolated and dissected one by one in ice-cold PBS (Life Technologies) under optical control using a binocular. Meninges, olfactory bulbs, and basal ganglia were removed. Cortical hemispheres (still including the hippocampus) were cut in small pieces with tweezers and placed on ice in pre-chilled Hibernate-E medium (Life technology). The hemispheres were then incubated in 10 mL of Hibernate-E containing 15 U/mL papain (Worthington) for 25 min at 30° C. with gentle mixing every 10 min. Genomic DNA was then digested by prolonging the incubation during 10 min at 37° C. in presence of 4 U/mL rDNase I (Ambion). The obtained suspension was then centrifuged at 800 g for 5 min and the cell pellet was resuspended in 2 mL Hibernate-E and gently dissociated by pipetting up and down 10 times with a plastic Pasteur pipette resulting in a homogenous cell suspension. This suspension was immediately filtered through a 70 µm cell strainer (MACS® SmartStrainer, Miltenyi), collected in 10 mL Hibernate-E and centrifuged at 800 g for 5 min. The cell pellet was resuspended in Neurobasal medium, supplemented with 2% B-27, 0.5 mM Glutamax-I, 100 U/mL penicillin, 100 µg/mL streptomycin (Life Technologies) and diluted at the final concentration of 300′000 cells/mL. One day before plating the cells, 384-well plates were coated with 25 μL/well of 0.1% poly-L-lysine solution (Sigma), incubated overnight at 37° C., washed two times with sterile distilled water and allowed to dry at room temperature for >2 h. The neurons were seeded at a density of 15′000 cells/well in 50 μL/well in a 384-well black, clear-bottomed plates (Corning) and subsequently maintained in an incubator at 37° C., 5% CO2 and 95% humidity for 8 to 10 days. After 3 and 7 days, 40% of media was renewed under sterile conditions.
Protocol Rat Oscillation Assay
Neurons seeded in the assay plates were washed with Hank's balanced salt solution (HBSS) devoid of Ca^2+ and Mg^2+, supplemented with 20 mM HEPES (Life Technologies) and 2 mM CaCl2 (Sigma), pH 7.4 (hereafter called Assay buffer) using a Biotek EL406 plate washer. Neurons were loaded with 1 μM Fluo-8 AM in Assay buffer for 15 min at 37° C., 5% CO2. […]

[1] = 20 min, AUC of fluorescence measured 20 min after compound addition, read-out: FLIPR: IC50 [nM] 20 min
[2] = Acute phase, ratio of AUC fluorescence before and after compound addition, read-out: FLIPR: IC50 [nM] acute

Row | SMILES | IC50 [1] [nM] | IC50 [2] [nM]
1 | COCC(NC(=O)NC1CC2(CCC2)C1)c1cccc(C(F)(F)F)c1 (racemic) [Example 9, (±)-1-[2-Methoxy-1-(3-trifluoromethyl-phenyl)-ethyl]-3-spiro[3.3]hept-2-yl-urea] | 2.1 | 5.1
2 | COCC(NC(=O)NC1CC2(CCC2)C1)c1ccnc(OC(F)F)c1 (racemic) [Example 10, (±)-1-[1-(2-Difluoromethoxy-pyridin-4-yl)-2-methoxy-ethyl]-3-spiro[3.3]hept-2-yl-urea] | 6 | 6.2
3 | O=C(NC1CC2(CCC2)C1)NC1COc2ccc(OC(F)(F)F)cc21 (racemic) [Example 11, (±)-1-Spiro[3.3]hept-2-yl-3-(5-trifluoromethoxy-2,3-dihydro-benzofuran-3-yl)-urea] | 171 | 246
4 | CC(NC(=O)NC1CC2(CCC2)C1)c1cc(C(F)(F)F)ccc1Br (racemic) [Example 19, (±)-1-[1-(2-Bromo-5-trifluoromethyl-phenyl)-ethyl]-3-spiro[3.3]hept-2-yl-urea] | 274 | 337
5 | COc1ccc(C(F)(F)F)cc1C(C)NC(=O)NC1CC2(CCC2)C1 (racemic) [Example 20, (±)-1-[1-(2-Methoxy-5-trifluoromethyl-phenyl)-ethyl]-3-spiro[3.3]hept-2-yl-urea] | 304 | 508
6 | COc1c(C(C)NC(=O)NC2CC3(CCC3)C2)cccc1C(F)(F)F (racemic) [Example 21, (±)-1-[1-(2-Methoxy-3-trifluoromethyl-phenyl)-ethyl]-3-spiro[3.3]hept-2-yl-urea] | 72 | 112
7 | CC(NC(=O)NC1CC2(CCC2)C1)c1cccc(C(F)(F)F)c1 (racemic) [Example 23, (±)-1-Spiro[3.3]hept-2-yl-3-[1-(3-trifluoromethyl-phenyl)-ethyl]-urea] | 4.6 | 13
8 | O=C(NC1CC2(CCC2)C1)NC(c1cccc(C(F)(F)F)c1)C1CC1 (racemic) [Example 24, (±)-1-[Cyclopropyl-(3-trifluoromethyl-phenyl)-methyl]-3-spiro[3.3]hept-2-yl-urea] | 8.6 | 14
9 | O=C(NC1CC2(CCC2)C1)NC(c1cccc(OC(F)F)c1)C1CC1 (racemic) [Example 25, (±)-1-[Cyclopropyl-(3-difluoromethoxy-phenyl)-methyl]-3-spiro[3.3]hept-2-yl-urea] | 19 | 10
10 | Cc1ccc(C(C)NC(=O)NC2CC3(CCC3)C2)cc1OCC(F)(F)F (racemic) [Example 26, (±)-1-{1-[4-Methyl-3-(2,2,2-trifluoro-ethoxy)-phenyl]-ethyl}-3-spiro[3.3]hept-2-yl-urea] | 206 | 190
11 | CC(NC(=O)NC1CC2(CCC2)C1)c1ccc(Cl)c(OCC(F)(F)F)c1 (racemic) [Example 27, (±)-1-{1-[4-Chloro-3-(2,2,2-trifluoro-ethoxy)-phenyl]-ethyl}-3-spiro[3.3]hept-2-yl-urea] | 169 | 278
12 | COc1ccc(C(C)NC(=O)NC2CC3(CCC3)C2)cc1OCC(F)(F)F (racemic) [Example 28, (±)-1-{1-[4-Methoxy-3-(2,2,2-trifluoro-ethoxy)-phenyl]-ethyl}-3-spiro[3.3]hept-2-yl-urea] | 600 | 629
13 | Cc1c(OCC(F)(F)F)cccc1C(C)NC(=O)NC1CC2(CCC2)C1 (racemic) [Example 29, (±)-1-{1-[2-Methyl-3-(2,2,2-trifluoro-ethoxy)-phenyl]-ethyl}-3-spiro[3.3]hept-2-yl-urea] | 253 | 452
14 | CC(NC(=O)NC1CC2(CCC2)C1)c1cccc(OCC(F)(F)F)c1Cl (racemic) [Example 30, (±)-1-{1-[2-Chloro-3-(2,2,2-trifluoro-ethoxy)-phenyl]-ethyl}-3-spiro[3.3]hept-2-yl-urea] | 269 | 252
